# Patent US7135292B2, “Analysis and modification of gene expression in marine invertebrate cells” (Harbor Branch Oceanographic Institution, Inc., priority 2002, dated 2006)
# Columns and labels:
# [1] = system: Axinella corrugata cell cultures; assay: Fluorescent assays of DNA and protein content in PHA-treated cultures; type: cell-based; conditions: 6 replicate comparisons, observed between 6 and 18 hours after treatment
# From the text: Sponge Cells. Cells were obtained from cryopreserved stocks at Harbor Branch Oceanographic Institution. All cells were derived from Axinella corrugata specimens collected in the waters of Florida, the Bahamas, and the Caribbean Sea, and were cryopreserved according to Pomponi et al. (Pomponi et al. 1997b supra). This sponge is relatively common and easy to collect, amenable to culture efforts, and produces the bioactive compound, stevensine, in vitro (Pomponi et al. 1997b supra). Enriched fractions of dissociated sponge cells were prepared, cryopreserved, and thawed according to previously published methods (Pomponi et al. 1997b supra). Cells were incubated at 22–25° C. in a growth medium consisting of a modified and supplemented commercial formulation (Willoughby and Pomponi 2000 supra). The length of the incubation period was based on my unpublished observation of elevated DNA and protein contents (9%, P=0.034, and 9%, P=0.038, respectively) in PHA-treated cultures, according to fluorescent assays of 6 replicate comparisons (Willoughby and Pomponi 2000 supra). Since the effects were observed between 6 and 18 hours after treatment, cells were cultured for 12-hour periods representing the center point of the period of observed changes. […]
# [2] = system: Axinella corrugata cell cultures; assay: PCR verification of cdc10 and calcineurin B expression; type: cell-based; conditions: two specimens
# Description: cDNA Preparation. cDNA was prepared as described in the array experiments, using unlabeled dCTP instead of the α-^33P dCTP. The final product was then diluted 25-fold in water, loaded onto a DNA recovery column (Zymo Research D4001) and washed according to the manufacturer's protocol followed by elution with four consecutive 25-μl aliquots of nuclease free water. The procedure was then repeated for 40-μl aliquots, with a final elution in two aliquots of 20 μl, to produce twice-washed cDNA. Final template solution was prepared from 10 μl of twice-washed cDNA by addition of 80 μl water and precipitation with 30 μl 5M ammonium acetate and 250 μl ethanol at −20° C. for 30 minutes. Samples were centrifuged at 4° C. for 30 minutes at 10,000×g. Pellets were washed twice with 70% ethanol and air-dried for 15 minutes prior to resuspension in 20 μl nuclease free water. For the -RT control reactions, RNA/DNA template amounts were calculated volumetrically, to correspond with the volume of final template used in each reaction. Since some loss of cDNA can be expected for each of the purification steps, the volume of template used in the -RT control reactions likely exceeds that used in the corresponding test reactions, resulting in overestimation of the possible contribution of DNA background signals, acting as a conservative control.
# Primers. […]
substance,measurement,setting,value
phytohemagglutinin [PHA],elevated DNA content in PHA-treated cultures,[1]; P=0.034,9%
same,elevated protein content in PHA-treated cultures,[1]; P=0.038,9%
same,"cdc10 expression by PCR, PHA treated vs untreated",[2]; FIG. 9A,up-regulation
same,"calcineurin B expression by PCR, PHA treated vs untreated",[2]; FIG. 9B,down-regulation
